Experimental findings from patent US3941800A, “N-benzyltriazole compounds” (Bayer Aktiengesellschaft, priority 1969, dated 1976) are described below.

Holding throughout (type): in vivo
Experiment [1] concerns beans (Phaseolus vulgaris). In words: Growth inhibition/bean plants. The conditions noted are these: 500 ppm spray on beans 10 cm high; length after 8 days; water control 26 cm. The method, then: (§1) Solvent: 40 parts by weight acetone
(§2) Emulsifier: 0.25 parts by weight alkylaryl polyglycol ether
To produce a suitable preparation of active compound, 1 part by weight of active compound was mixed with the stated amount of solvent which contained the stated amount of emulsifier, and the concentrate was diluted with a disodium hydrogen phosphate-potassium dihydrogen phosphate buffer solution (pH 6) to the desired concentrations.
Beans (Phaseolus vulgaris) 10 cm high were sprayed with preparations which contained 500 ppm of active compound.
After 8 days, the length of the treated plants compared with the untreated control plant was determined.
The active compounds, concentrations of active compound in ppm (=mg/kg) and the results can be seen from the following Table.

For experiment [2], the system named is tomato plants. In words: Growth inhibition/tomato plants. The conditions noted are these: Solanum lycopersicum, 192 h; 500 ppm spray on plants 10 cm high; after 8 days vs untreated control. The protocol: as §1, §2
To produce a suitable preparation of active compounds, 1 part by weight of active compound was mixed with the stated amount of solvent which contained the stated amount of emulsifier, and the concentrate was diluted with a disodium hydrogen phosphate-potassium dihydrogen phosphate buffer solution (pH 6) to the desired concentration.
Tomato plants of a height of 10 cm were sprayed with a preparation which contained 500 ppm of active compound.
After 8 days, the percentage inhibition of the treated plants compared with the untreated control plant was determined. With 100% inhibition, no growth was present; with 0% inhibition, the growth corresponded to that of the control plant.
The active compounds, concentration of active compound in ppm (=mg/kg) and the results can be seen from the following Table.

The subject of experiment [3] is oat grains. In words: Growth inhibition/oat grains. The conditions noted are these: 72 h, shoot length after 3 days vs control, dark, 25°C, pH 6. The protocol:
as §1, §2
(§3) To produce a suitable preparation of active compound, 1 part by weight of active compound was mixed with the stated amount of solvent which contained the stated amount of emulsifier, and the concentrate was diluted with a disodium hydrogen phosphate-potassium dihydrogen phosphate buffer solution (pH 6) to the desired concentration.
Batches of 25 oat grains were laid out on two filter papers in a Petri dish. 10 ml. of the preparation of active compound were pipetted into each dish. Germination of the seeds took place in the dark at 25°C.
After 3 days, the length of the shoot was determined and the growth inhibition compared with the control plant was expressed as a percentage. 100% denoted the standstill of growth, and 0% denoted a growth corresponding to that of the untreated plant.
The active compounds, concentrations of the active compounds in ppm (=mg/kg) and the results can be seen from the following Table.

Experiment [4] deals with apple seedlings. In words: Growth inhibition/apple seedlings. Conditions: 168 h; 500 ppm spray on seedlings about 2 cm high; after 7 days vs untreated control. The protocol: as §1, §2, §3
Apple seedlings were, at a height of about 2 cm, sprayed with a preparation which contained 500 ppm of active compound.
After 7 days, the percentage inhibition of the treated plants compared with the untreated control plant was determined. With 100% inhibition, no growth was present; with 0% inhibition, the growth corresponded to that of the control plant.
The active compounds, the concentrations of the active compounds in ppm (=mg/kg) and the results can be seen from the following Table.

The subject of experiment [5] is linseed. In words: Growth inhibition/linseed test. The conditions noted are these: 72 h, root length after 3 days vs control, dark, 25°C, pH 6. The protocol:
as §1, §2, §3
Batches of 25 linseeds were laid out on two filter papers in a Petri dish. 10 ml. of the preparation of active compound were pipetted into each dish. Germination of the seeds took place in the dark at 25°C.
After 3 days, the length of the roots was determined and the growth inhibition compared with the control plant was expressed as a percentage. 100% denoted the standstill of growth, and 0% denoted a growth corresponding to that of the untreated plant.
The active compounds, the concentrations of the active compounds in ppm (=mg/kg) and results can be seen from the following Table.

`Cn1ccnc1C(c1ccccc1)(c1ccc(-c2ccccc2)cc1)n1cncn1` (stereo not shown) [Compound 8, (4-phenyl-phenyl)-phenyl(1-methyl-imidazol-2-yl)-(1,2,4-triazol-1-yl)-methane]: the “Length in cm with a concentration of active compound of 500 ppm” value (from here on “Length in cm with a concentration”) in experiment [1] stood at 11.5 cm.
In general, inhibition refers to the change of the read-out against control, counted positive when it falls. Regarding `Cc1cc(C(c2ccccc2)(c2ccc(F)cc2)n2cncn2)no1` (stereo not shown) [Compound 1, (4-fluoro-phenyl)-phenyl-(5-methyl-isoxazol-3-yl)-(1,2,4-triazol-1-yl)-methane], the “Length in cm with a concentration” value in experiment [1] was 10.5 cm. The inhibition at 500 ppm in experiment [2] is 81%; in experiment [4], 50%. The inhibition at 50 ppm in experiment [3] turned out to be 97%; in experiment [5], 85%. The inhibition at 250 ppm in experiment [3] and in experiment [5] was 100% throughout.
With `Cc1cc(C(c2ccccc2)(c2ccc(Cl)cc2)n2cncn2)no1` (stereo not shown) [Compound 2, (4-chloro-phenyl)-phenyl-(5-methyl-isoxazol-3-yl)-(1,2,4-triazol-1-yl)-methane], the “Length in cm with a concentration” value in experiment [1] turned out to be 10.0 cm. The same compound showed an inhibition at 500 ppm in experiment [2] of 88%. Also, the inhibition at 50 ppm in experiment [3] and in experiment [5] was 55% each time. Further, the inhibition at 250 ppm in experiment [3] came to 95%; in experiment [5], 85%.
For the compound `CN(C)NC(=O)CCC(=O)O` [succinic acid 2,2-dimethylhydrazide, reference compound], the inhibition at 500 ppm amounted to 20% in experiment [2] and 23% in experiment [4]. The inhibition at 50 ppm in experiment [3] came out at 22%; in experiment [5], 12%. Further, the values for the inhibition at 250 ppm in experiment [3] and in experiment [5] were 37% and 15%, respectively.
In experiment [2], `Cc1cccc(C(c2ccccc2)(c2nccn2C)n2cncn2)c1` (stereo not shown) [Compound 3, (3-methyl-phenyl)-phenyl-(1-methyl-imidazol-2-yl)-(1,2,4-triazol-1-yl)-methane] gave an inhibition at 500 ppm of 60%. Also, in experiment [5], the inhibition at 50 ppm was 85% and at 250 ppm the inhibition was 100%.
For `Cn1ccnc1C(c1ccccc1)(c1ccc(C(C)(C)C)cc1)n1cncn1` (stereo not shown) [Compound 7, (4-tert.-butyl-phenyl)-phenyl(1-methyl-imidazol-2-yl)-(1,2,4-triazol-1-yl)-methane], in experiment [3], at 50 ppm the inhibition was 25% and 250 ppm produced 62% inhibition.
Take `C[N+](C)(C)CCCl` [(2-chloroethyl)-trimethyl-ammonium chloride, reference compound]: the inhibition at 500 ppm in experiment [2] and in experiment [4] was 25% throughout. For the same compound, the inhibition at 50 ppm in experiment [3] was 22%; in experiment [5] it was 20%. Moreover, the inhibition at 250 ppm in experiment [3] came to 31%; in experiment [5], 30%.
In the case of `Cc1cc(C(c2ccccc2)(c2ccccc2)n2cncn2)no1` [Compound 4, bis-phenyl-(5-methyl-isoxazol-3-yl)-(1,2,4-triazol-1-yl)-methane], in experiment [2], 500 ppm produced 80% inhibition. For the same compound, in experiment [3], at 50 ppm the inhibition was 65% and the inhibition at 250 ppm worked out at 75%. Further, the inhibition at 500 ppm in experiment [4] came to 43%.
In experiment [3], `Cn1ccnc1C(c1ccccc1)(c1ccc(Cl)cc1)n1cncn1` (stereo not shown) [Compound 6, (4-chloro-phenyl)-phenyl-(1-methyl-imidazol-2-yl)-(1,2,4-triazol-1-yl)-methane] showed an inhibition at 50 ppm of 25% and an inhibition at 250 ppm of 70%.
As for `O=c1ccc(=O)[nH][nH]1` [maleic acid hydrazide, reference compound], the “Length in cm with a concentration” value in experiment [1] is recorded as 12 cm. Moreover, in experiment [2], the inhibition at 500 ppm was determined as 33%. Also, in experiment [3], the inhibition at 50 ppm is 20% and the inhibition at 250 ppm is 40%. In experiment [5], this compound showed an inhibition at 50 ppm of 36% and an inhibition at 250 ppm of 50%.
